From patent publication US20210393621A1, “COMBINATION SEROTONIN SPECIFIC REUPTAKE INHIBITOR AND SEROTONIN 1A RECEPTOR PARTIAL AGONIST FOR REDUCING L-DOPA-INDUCED DYSKINESIA” (The Research Foundation for The State University of new York, priority 2018, published 2021)
Read-outs that look alike come from different tables or passages of the source.

Legend:
[1] = cited from earlier work
[2] = target: norepinephrine transporter (NET) (Homo sapiens, UniProt P23975); conditions: read-out: Ki for NET (norepinephrine reuptake site); cited from earlier work
Sequence of norepinephrine transporter (NET) (P23975 whole entry): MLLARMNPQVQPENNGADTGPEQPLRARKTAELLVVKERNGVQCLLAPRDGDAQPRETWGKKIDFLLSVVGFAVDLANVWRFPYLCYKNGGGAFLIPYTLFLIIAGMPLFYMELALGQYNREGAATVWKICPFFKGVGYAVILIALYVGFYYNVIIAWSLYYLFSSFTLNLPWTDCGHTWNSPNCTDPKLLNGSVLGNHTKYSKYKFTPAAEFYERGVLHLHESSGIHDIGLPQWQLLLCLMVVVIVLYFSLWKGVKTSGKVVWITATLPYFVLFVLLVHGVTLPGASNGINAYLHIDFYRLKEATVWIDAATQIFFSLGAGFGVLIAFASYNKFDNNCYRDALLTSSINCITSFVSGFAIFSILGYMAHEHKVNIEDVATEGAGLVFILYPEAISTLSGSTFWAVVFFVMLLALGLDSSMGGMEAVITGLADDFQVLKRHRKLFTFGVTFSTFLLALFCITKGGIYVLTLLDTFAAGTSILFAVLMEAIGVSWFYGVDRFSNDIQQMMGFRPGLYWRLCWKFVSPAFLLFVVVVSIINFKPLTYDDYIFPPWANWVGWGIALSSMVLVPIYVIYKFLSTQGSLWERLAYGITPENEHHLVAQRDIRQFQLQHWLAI

[3] = test system: 6-OHDA-lesioned hemi-parkinsonian rats; test: Experiment 2: forepaw adjusting steps (FAS); assay type: in vivo, Sprague-Dawley rats; conditions: Vilazodone 10 mg/kg + L-DOPA 6 mg/kg; by Day 15
Experimental: […].). All VZD injections were administered 5 min prior to LD. […] AIMs values expressed are the median sum of axial, limb, and orolingual (ALO) behaviors. […] Values are expressed as medians [±median absolute difference (M.A.D.)]. […] Forepaw adjusting steps (FAS): The FAS test is a measure of forelimb akinesia performed according to previous protocols (Bishop et al., 2012; Chang et al., 1999). Data are presented as mean percent intact stepping where the sum of the total steps with the lesioned forepaw was divided by the total steps with the unlesioned forepaw multiplied by 100. Lower percent intact scores indicate greater forelimb akinesia. Prior to baseline, rats received 2 acclimation periods. On-treatment FAS was performed 60 min post-L-DOPA.

[4] = test system: 6-OHDA-lesioned hemi-parkinsonian rats; test: Experiment 2: AIMs, LID development in L-DOPA-naive hemi-parkinsonian rats; assay type: in vivo, Sprague-Dawley rats; conditions: treatment naive rats; VZD 10 or 20 mg/kg + L-DOPA 6 mg/kg, 3 weeks; vs Vilazodone (0 mg/kg)+L-DOPA (6 mg/kg)
Experimental: Baseline forepaw adjusting step (FAS) data was collected 3 weeks after sham or […] lesion surgery, but prior to LD exposure. Sham animals received daily VZD (0 mg/kg)+L-DOPA (0 mg/kg) and 6-OHDA-lesioned animals received daily VZD (0, 10 or 20 mg/kg; s.c.)+LD (6 mg/kg; s.c.). All VZD injections were administered 5 min prior to LD. (FIG. 2A) AIMs and (FIG. 2B) FAS were evaluated on days 1, 8, 15, and 22. AIMs values expressed are the median sum of axial, limb, and orolingual (ALO) behaviors. ALO AIMs were evaluated every 10 min for 3 h post-LD administration. Values are expressed as medians [±median absolute difference (M.A.D.)]. FAS were evaluated 60 min post LD and are expressed as the mean overall steps […] to lesion multiplied by 100.
After recovery, FAS established baseline motor disability. 6-OHDA-lesioned animals were divided into 3 equally disabled groups. […] AIMs ([…]) and FAS (FIG. 2B) were measured on Days 1, 8, 15, and 22 of treatment.
Beginning 10 min post-treatment, a trained and blinded observer assigned a severity score (0-4) to each of the ALO AIMs based on 1 min ratings every 10 min for 3 h: 0, not present; 1, present from 1-29 s; 2, present 30-59 s; 3, present all 60 s, but interruptible by a cylinder tap; 4, present 60 s and not interruptible by a cylinder tap.

[5] = test system: 6-OHDA-lesioned hemi-parkinsonian rats; test: Experiment 1: AIMs, established LID in L-DOPA-primed hemi-parkinsonian rats; assay type: in vivo, Sprague-Dawley rats
5-HT2A = 5-HT2A (Homo sapiens, UniProt P28223); conditions: cited from earlier work
Sequence of 5-HT2A (P28223 whole entry, species assumed): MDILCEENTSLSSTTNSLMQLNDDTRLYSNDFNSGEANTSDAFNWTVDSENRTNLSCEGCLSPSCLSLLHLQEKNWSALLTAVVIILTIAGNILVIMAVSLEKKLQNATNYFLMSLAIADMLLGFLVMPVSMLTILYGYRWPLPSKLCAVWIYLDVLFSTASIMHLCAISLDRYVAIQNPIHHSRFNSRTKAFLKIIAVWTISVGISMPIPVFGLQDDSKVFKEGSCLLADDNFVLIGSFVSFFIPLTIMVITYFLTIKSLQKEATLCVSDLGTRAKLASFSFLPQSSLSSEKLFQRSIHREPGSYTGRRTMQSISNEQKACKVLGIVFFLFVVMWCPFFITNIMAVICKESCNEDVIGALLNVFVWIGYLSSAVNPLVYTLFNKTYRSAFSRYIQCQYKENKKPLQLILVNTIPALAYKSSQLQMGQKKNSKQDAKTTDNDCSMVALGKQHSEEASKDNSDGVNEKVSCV

[6] = test system: striatal and raphe tissue monoamines; test: Experiment 1: HPLC of tissue monoamines and metabolites in striatum and dorsal raphe nucleus; conditions: for 5-HIAA / 5-HT / 5-HT Turnover / DA Turnover / DOPAC / DA: 60 min post-LD
Experimental: Three-weeks post-lesion, animals were divided into 2 equally disabled groups, measured by forepaw adjusting steps (FAS, see below). One group (n=8) began receiving 14 days of daily vehicle (0.9% NaCl+0.1% ascorbic acid) and the other (n=22) received L-DOPA methyl ester (6 mg/kg, s.c.; Sigma)+DL-serine 2-(2,3,4-trihydroxybenzyl) hydrazine hydrochloride (benserazide; 15 mg/kg, s.c.; Sigma), hereafter L-DOPA, dissolved in vehicle at a volume of 1 mg/kg. Treatment persisted for 14 days to produce stable AIMs expression (Putterman et al., 2007; Conti et al., 2014). Thereafter, L-DOPA-treated animals with Axial, Limb, and Orolingual (ALO) AIMs (see description below, FIG. 1A)<30 were excluded from the study and the remaining L-DOPA-treated animals were divided into 3 equally dyskinetic groups. […] Daily injections continued over 23 days, with behavior assayed on Days 15, 22, 29, and 36. On Day 37, animals were killed 60 min post-treatment Left and right dorsal striata and DRN were dissected and flash frozen for HPLC analyses.
High-performance liquid chromatography (HPLC): HPLC, a method for semi-automated catecholamine analysis with coulometric detection, was performed according to prior protocols (Bishop et al., 2009) to determine the tissue levels of monoamines, their metabolites, and monoamine turnover in the striatum and DRN. The limit of detection for DOPAC, DA, 5-hydroxyindoleacetic acid (5-HIAA) and 5-HT was 10^−10 M. Final oxidation current values were plotted on a standard curve from 10^−6 M to 10^−9 M and expressed as pg of monoamine or metabolite per mg of tissue unless otherwise specified.
On the final treatment day, animals were sacrificed 60 min post-LD treatment and left and right striata and dorsal raphe nucleus (DRN) were collected for high performance liquid chromatography (HPLC) analysis. Values (means±standard mean error) are expressed as picograms of monoamine or metabolite per milligram wet tissue weight. Turnover estimates were determined by dividing a subjects metabolite value by its corresponding monoamine. Differences were assessed by a 2×4 (lesion×treatment) ANOVA, followed by Fisher's LSD post-hocs when appropriate. *p<0.01 vs lesion vs intact; +p<0.05 vs all; ^p<0.05 vs VZD (0)+LD (0); #p<0.05 vs VZD (0)+LD (6)

5-HT1D = 5-HT1D (Homo sapiens, UniProt P28221); conditions: cited from earlier work
Sequence of 5-HT1D (P28221 whole entry, species assumed): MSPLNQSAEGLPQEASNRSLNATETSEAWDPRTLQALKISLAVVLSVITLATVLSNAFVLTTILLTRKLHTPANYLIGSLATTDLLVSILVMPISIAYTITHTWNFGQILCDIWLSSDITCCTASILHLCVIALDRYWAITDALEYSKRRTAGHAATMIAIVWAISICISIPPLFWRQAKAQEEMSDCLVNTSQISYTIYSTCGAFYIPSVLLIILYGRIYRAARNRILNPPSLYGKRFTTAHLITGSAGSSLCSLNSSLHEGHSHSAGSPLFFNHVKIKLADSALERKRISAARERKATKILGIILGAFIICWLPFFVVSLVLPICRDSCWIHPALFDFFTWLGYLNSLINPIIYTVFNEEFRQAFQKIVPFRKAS

SERT = target: T1, SERT (Rattus norvegicus, UniProt P31652); conditions: rat cortex and hippocampus ex vivo, cited from earlier work
T1 construct: 50% occupancy at 1-3 mg/kg in rat cortex and hippocampus ex vivo; from tissue; host or cells: rat cortex and hippocampus
T1 sequence (P31652 whole entry): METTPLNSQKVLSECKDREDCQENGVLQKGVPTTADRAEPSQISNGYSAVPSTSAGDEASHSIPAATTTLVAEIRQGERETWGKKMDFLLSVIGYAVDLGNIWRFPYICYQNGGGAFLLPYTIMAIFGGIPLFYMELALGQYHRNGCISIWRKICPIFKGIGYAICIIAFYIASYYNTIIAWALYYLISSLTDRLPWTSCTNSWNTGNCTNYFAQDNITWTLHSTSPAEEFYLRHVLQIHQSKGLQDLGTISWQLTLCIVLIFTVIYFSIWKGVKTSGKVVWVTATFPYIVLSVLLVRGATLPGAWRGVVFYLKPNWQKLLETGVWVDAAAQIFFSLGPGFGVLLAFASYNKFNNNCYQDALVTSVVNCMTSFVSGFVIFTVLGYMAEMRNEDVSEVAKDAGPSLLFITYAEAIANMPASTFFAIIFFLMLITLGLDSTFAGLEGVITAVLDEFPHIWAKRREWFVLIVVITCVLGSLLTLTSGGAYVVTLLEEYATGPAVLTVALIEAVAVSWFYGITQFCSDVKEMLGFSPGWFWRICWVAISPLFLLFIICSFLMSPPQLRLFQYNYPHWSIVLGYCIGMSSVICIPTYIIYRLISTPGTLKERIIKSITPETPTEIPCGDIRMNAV

5-HT2C = 5-HT2C (Homo sapiens, UniProt P28335); conditions: cited from earlier work
Sequence of 5-HT2C (P28335 33-458, species assumed): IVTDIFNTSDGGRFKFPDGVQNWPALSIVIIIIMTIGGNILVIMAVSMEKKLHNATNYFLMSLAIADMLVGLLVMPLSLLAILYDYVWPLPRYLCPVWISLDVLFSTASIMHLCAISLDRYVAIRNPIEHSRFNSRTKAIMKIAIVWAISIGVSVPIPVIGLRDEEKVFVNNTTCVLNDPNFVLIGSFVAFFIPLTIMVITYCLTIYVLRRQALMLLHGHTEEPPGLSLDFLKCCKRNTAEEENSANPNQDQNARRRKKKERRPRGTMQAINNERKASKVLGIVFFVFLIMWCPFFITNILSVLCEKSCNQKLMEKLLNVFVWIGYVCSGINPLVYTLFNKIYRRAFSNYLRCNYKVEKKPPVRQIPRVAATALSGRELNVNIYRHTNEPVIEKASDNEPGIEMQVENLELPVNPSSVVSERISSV

[7] = test system: striatal c-Fos, PPD, PPE, PPT and 5-HT1AR mRNA; test: Experiment 2: real-time RT-PCR of striatal gene expression
[8] = test system: extracellular 5-HT, dopamine and norepinephrine; conditions: cited from earlier work; for maximal increase of extracellular 5-HT: rats, acute systemic injection, measured 3 h after injection
[9] = target: dopamine transporter (DAT) (Homo sapiens, UniProt Q01959); conditions: read-out: Ki for DAT (dopamine reuptake site); cited from earlier work
Sequence of dopamine transporter (DAT) (Q01959 whole entry, species assumed): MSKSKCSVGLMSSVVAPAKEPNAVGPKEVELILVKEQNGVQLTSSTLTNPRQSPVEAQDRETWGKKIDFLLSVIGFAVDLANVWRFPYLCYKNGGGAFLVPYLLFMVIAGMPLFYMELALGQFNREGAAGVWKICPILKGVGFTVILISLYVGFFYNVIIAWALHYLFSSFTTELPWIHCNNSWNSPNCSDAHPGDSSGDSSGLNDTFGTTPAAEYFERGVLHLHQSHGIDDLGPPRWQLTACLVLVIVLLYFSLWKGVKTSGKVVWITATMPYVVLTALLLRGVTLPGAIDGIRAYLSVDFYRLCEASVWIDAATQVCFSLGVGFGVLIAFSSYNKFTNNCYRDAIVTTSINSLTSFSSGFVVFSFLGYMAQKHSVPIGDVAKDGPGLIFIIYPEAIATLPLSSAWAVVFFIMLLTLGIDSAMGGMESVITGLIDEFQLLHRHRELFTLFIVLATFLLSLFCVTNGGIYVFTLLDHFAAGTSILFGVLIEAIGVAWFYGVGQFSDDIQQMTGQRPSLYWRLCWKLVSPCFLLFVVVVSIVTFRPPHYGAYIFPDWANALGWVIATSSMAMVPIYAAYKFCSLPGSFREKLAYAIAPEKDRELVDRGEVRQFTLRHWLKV

[10] = administered with either a fatty or light meal
[11] = Dorsal Raphe Nucleus, VZD(10) + LD(6) mg/kg
[12] = Dorsal Raphe Nucleus, VZD(20) + LD(6) mg/kg
[13] = Striatum, Intact, VZD(10) + LD(6) mg/kg
[14] = Striatum, Intact, VZD(20) + LD(6) mg/kg
[15] = Striatum, Lesion, VZD(10) + LD(6) mg/kg
[16] = Striatum, Lesion, VZD(20) + LD(6) mg/kg
[17] = lesioned striata, VZD 0, 10 or 20 mg/kg + L-DOPA 6 mg/kg daily, day 23, 60 min post-injection

## Cl.N#Cc1ccc2[nH]cc(CCCCN3CCN(c4ccc5oc(C(N)=O)cc5c4)CC3)c2c1 [Vilazodone, 5-{4-[4-(5-cyano-3-indolyl)-butyl]-1-piperazinyl}-benzofuran-2-carboxamide hydrochloride]
[1]; [10]
  AUC increase: 64%-85%
  Cmax increase: 147%-160%
[1]; under fed conditions
  bioavailability: 72%
[2]
  Ki: 56 nM
[3]
  FAS, pro-motor effects versus Vilazodone (0)+L-DOPA (6 mg/kg): significantly enhanced the pro-motor effects of L-DOPA
[4]
  ALO AIMs, development of LID: significantly attenuated the development of LID
[5]; 20 mg/kg vs 10 mg/kg, initially, dissipated after the first week
  anti-LID efficacy, high versus low dose: greater anti-LID efficacy than the lower dose
[5]; VZD 10 or 20 mg/kg s.c. 5 min prior to L-DOPA 6 mg/kg, vs Vilazodone (0 mg/kg)+L-DOPA (6 mg/kg), from first day throughout treatment
  ALO AIMs, established LID: dramatically reduced AIMs
[5]; chronic Vilazodone + L-DOPA in rats, any time point
  side effects, like 5-HT syndrome: weren't observed at any time point
[5]; validated rodent model
  reduction of development and expression of LID compared with Amantadine: more effective than Amantadine
5-HT2A
  affinity for 5-HT2A: negligible affinity
[6]; [11]
  5-HIAA: 2541 ± 187^ picograms per milligram wet ti
  5-HT: 7013 ± 462^^ picograms per milligram wet ti
  5-HT Turnover: 0.37 ± 0.02
  DA Turnover: 7.60 ± 0.78
  DOPAC: 1175 ± 234 picograms per milligram wet ti
[6]; [12]
  5-HIAA: 1985 ± 345^ picograms per milligram wet ti
  5-HT: 5946 ± 776^ picograms per milligram wet ti
  5-HT Turnover: 0.32 ± 0.03
  DA: 128 ± 15.2 picograms per milligram wet ti
  DA Turnover: 7.19 ± 1.12
  DOPAC: 909 ± 186 picograms per milligram wet ti
[6]; [13]
  5-HIAA: 470 ± 35.5 picograms per milligram wet ti
  5-HT: 326 ± 24.3 picograms per milligram wet ti
  5-HT Turnover: 1.45 ± 0.04
  DA: 4827 ± 222 picograms per milligram wet ti
  DA Turnover: 0.85 ± 0.05
  DOPAC: 4138 ± 332^ picograms per milligram wet ti
[6]; [14]
  5-HIAA: 422 ± 38.6 picograms per milligram wet ti
  5-HT: 305 ± 33.5 picograms per milligram wet ti
  5-HT Turnover: 1.41 ± 0.07
  DA: 4560 ± 337 picograms per milligram wet ti
  DA Turnover: 0.84 ± 0.03
  DOPAC: 3839 ± 306 picograms per milligram wet ti
[6]; [15]
  5-HIAA: 842 ± 78.8 picograms per milligram wet ti
  5-HT: 261 ± 30.7 picograms per milligram wet ti
  5-HT Turnover: 3.38 ± 0.31
  DA: 128 ± 14.2 picograms per milligram wet ti
  DA Turnover: 1.56 ± 0.18
[6]; [16]
  5-HIAA: 596 ± 55.1+ picograms per milligram wet ti
  5-HT: 223 ± 23.8 picograms per milligram wet ti
  5-HT Turnover: 2.84 ± 0.33^
  DA: 128 ± 26.2 picograms per milligram wet ti
  DA Turnover: 1.50 ± 0.15
  DOPAC: 190 ± 44.6 picograms per milligram wet ti
[6]; Vilazodone 10 mg/kg + L-DOPA
  DRN 5-HT: significantly increased DRN 5-HT
[6]; Vilazodone 20 mg/kg, compared to Vilazodone (0 mg/kg)+L-DOPA (0 mg/kg)
  striatal 5-HT Turnover: reduced 5-HT Turnover
[6]; Vilazodone 20 mg/kg, compared to all other treatments
  striatal 5-HIAA (printed 5-HIM): attenuated 5-HIM
[6]; Vilazodone 10 or 20 mg/kg + L-DOPA
  DRN DA Turnover: attenuated
[6]; both doses (10, 20 mg/kg) + L-DOPA vs groups receiving Vilazodone vehicle
  DA in the lesioned striatum: significantly increased DA
[6]; both doses of Vilazodone + L-DOPA
  DRN 5-HT Turnover: attenuated 5-HT Turnover
5-HT1D
  affinity for 5-HT1D: negligible affinity
SERT; 10 mg/kg
  SERT occupancy: 100%
SERT; 1-3 mg/kg
  SERT occupancy: 50%
5-HT2C
  affinity for 5-HT2C: negligible affinity
[7]; FIG. 6B
  striatal PPT mRNA: significantly reduced it
[7]; day 23
  striatal 5-HT1AR mRNA: did not affect striatal 5-HT1AR mRNA
[7]; lesioned striata, L-DOPA 6 mg/kg, Vilazodone 20 mg/kg
  striatal PPE mRNA: modestly, though significantly reduced
[7]; [17]
  striatal PPD mRNA: dose-dependently attenuated
  striatal c-Fos mRNA: diminished
[8]; frontal cortex
  maximal increase of extracellular 5-HT: 527%
[8]; rat brain, vilazodone 1 and 10 mg/kg
  extracellular dopamine and norepinephrine: caused no change
[8]; ventral hippocampus
  maximal increase of extracellular 5-HT: 558%
[9]
  Ki: 37 nM
